How the values were obtained:
Type in all cases: in vivo
[1] = system: Alopecurus myosuroides (ALOMY); experiment: Herbicidal pre-emergence action; details: 1280 g/ha, graded after ca. 3 weeks
Excerpt: (§1) Seeds of mono- and dicotyledonous weed plants and crop plants were sown, in plastic or organic planting pots, in sandy loam and covered with soil. The compounds according to the invention, formulated in the form of wettable powders (WP) or as emulsifiable concentrates (EC), were applied to the surface of the covering soil as aqueous suspension or emulsion, with the addition of 0.5% of an additive, at an application rate of 600 1 of water/ha (converted).
(§2) Following treatment, the pots were placed in a greenhouse and kept under optimum growth conditions for the test plants. The visual grading of the damage to the test plants was carried out after ca. 3 weeks in comparison to untreated controls (herbicidal effect in percent (%): 100% effect=plants have died off, 0% effect=as control plants).
(§3) Tables A1 to A16, below, show the effects of selected compounds of the general formula (I) according to table 1 on various harmful plants and an application rate corresponding to 1280 g/ha or lower obtained by the experimental procedure mentioned above.

Avena fatua (AVEFA) [2] = experiment: Herbicidal pre-emergence action; details: graded after ca. 3 weeks
Excerpt: as §1, §2, §3

[3] = system: Polygonum convolvulus (POLCO); experiment: Herbicidal pre-emergence action; details: graded after ca. 3 weeks
Excerpt: as §1, §2, §3

Avena fatua (AVEFA) [4] = experiment: Herbicidal post-emergence action; details: 1280 g/ha, assessed after ca. 3 weeks
Excerpt: (§4) Seeds of mono- and dicotyledonous weed plants and crop plants were sown, in plastic or organic planting pots, in sandy loam, covered with soil and grown in a greenhouse under controlled growth conditions. 2 to 3 weeks after sowing, the test plants were sprayed in the single-leaf stage. The compounds according to the invention, formulated in form of wettable powders (WP) or as emulsifiable concentrates (EC), were sprayed onto the green plant parts as aqueous suspension or emulsion, with the addition of 0.5% of an additive, at an application rate of 600 1 of water/ha (converted). The test plants were placed in the greenhouse for ca. 3 weeks under optimum growth conditions, and then the effect of the preparations was assessed visually in comparison with untreated controls (herbicidal effect in percent (%): 100% effect=plants have died off, 0% effect=as control plants).
(§5) Tables B1 to B16 below show the effects of selected compounds of the general formula (I) according to table 1 on various harmful plants and an application rate corresponding to 1280 g/ha or 320 g/ha obtained by the experimental procedure mentioned above.

[5] = system: Echinochloa crus-galli (ECHCG); experiment: Herbicidal post-emergence action; details: 1280 g/ha, assessed after ca. 3 weeks
Excerpt: as §4, §5

Setaria viridis (SETVI) [6] = experiment: Herbicidal post-emergence action; details: 1280 g/ha, assessed after ca. 3 weeks
Excerpt: as §4, §5

[7] = system: Alopecurus myosuroides (ALOMY); experiment: Herbicidal post-emergence action; details: 1280 g/ha, assessed after ca. 3 weeks
Excerpt: as §4, §5

[8] = system: Lolium multiflorum (LOLMU); experiment: Herbicidal post-emergence action; details: 1280 g/ha, assessed after ca. 3 weeks
Excerpt: as §4, §5

[9] = system: Echinochloa crus-galli (ECHCG); experiment: Herbicidal pre-emergence action; details: 1280 g/ha, graded after ca. 3 weeks
Excerpt: as §1, §2, §3

[10] = system: Lolium multiflorum (LOLMU); experiment: Herbicidal pre-emergence action; details: 1280 g/ha, graded after ca. 3 weeks
Excerpt: as §1, §2, §3

Setaria viridis (SETVI) [11] = experiment: Herbicidal pre-emergence action; details: 1280 g/ha, graded after ca. 3 weeks
Excerpt: as §1, §2, §3

SMILES | Pre-emergence activity against ALOMY [1] | Pre-emergence activity against AVEFA (Avena fatua (AVEFA) [2]; 1280 g/ha) | Post-emergence activity against AVEFA (Avena fatua (AVEFA) [4]) | Post-emergence activity against ECHCG [5] | Post-emergence activity against ALOMY [7] | also measured
O=C(CC1CCC(=O)N1Cc1cccc(F)c1F)NC(Cc1c[nH]c2ccccc12)C(=O)O (mixture of isomers) [Example I-068] | 80% | 80% | – | – | – | –
COC(=O)CCNC(=O)CC1CCC(=O)N1Cc1cccc(F)c1F (racemic) [Example I-084] | 80% | – | – | – | – | –
COCCNC(=O)CC1CCC(=O)N1Cc1cccc(F)c1F (racemic) [Example I-091] | 90% | – | – | – | – | –
CNC(=O)CC1CCC(=O)N1Cc1cccc(F)c1F (racemic) [Example I-104] | – | – | – | – | – | Pre-emergence activity against POLCO ([3]; 1280 g/ha): 90%
O=C(CC1CCC(=O)N1Cc1cccc(F)c1F)NCc1cccc2ncccc12 (racemic) [Example I-079] | – | – | 90% | – | – | –
O=C(CC1CCC(=O)N1Cc1cccc(F)c1F)NS(=O)(=O)C1CC1 (racemic) [Example I-086] | – | – | – | 80% | – | –
O=C(CC1CCC(=O)N1Cc1cccc(F)c1F)OCCSc1ccc(Cl)cc1 (racemic) [Example I-038] | – | – | – | 90% | 80% | Post-emergence activity against SETVI (Setaria viridis (SETVI) [6]): 80%; Post-emergence activity against LOLMU [8]: 80%
O=C(CC1CCC(=O)N1Cc1cccc(F)c1F)NN1CCCCC1 (racemic) [Example I-203] | – | – | – | – | – | Pre-emergence activity against POLCO ([3]; 320 g/ha): 80%; Pre-emergence activity against AVEFA (Avena fatua (AVEFA) [2]; 320 g/ha): 100%
CC(C)S(=O)(=O)NC(=O)CC1CCC(=O)N1Cc1cccc(F)c1F (racemic) [Example I-076] | – | 80% | 80% | – | – | –
O=C(CC1CCC(=O)N1Cc1cccc(F)c1F)NS(=O)(=O)C(F)F (racemic) [Example I-074] | – | – | – | 80% | – | –
CCNC(=O)CC1CCC(=O)N1Cc1cccc(F)c1F (racemic) [Example I-098] | – | – | 80% | – | – | –
CC1(C)OC(=O)C(C(=O)CC2CCC(=O)N2Cc2cccc(F)c2F)C(=O)O1 (racemic) [Example I-186] | – | – | – | 80% | – | Pre-emergence activity against POLCO ([3]; 1280 g/ha): 100%
O=C(CC1CCC(=O)N1Cc1cccc(F)c1F)NCCO (racemic) [Example I-049] | 90% | 100% | – | – | 80% | Pre-emergence activity against ECHCG [9]: 80%; Pre-emergence activity against LOLMU [10]: 80%; Pre-emergence activity against POLCO ([3]; 1280 g/ha): 90%
CN(C(=O)CC1CCC(=O)N1Cc1cccc(F)c1F)c1ccccc1 (racemic) [Example I-100] | 90% | – | – | – | – | –
COC(=O)CN(C)C(=O)CC1CCC(=O)N1Cc1cccc(F)c1F (racemic) [Example I-053] | 90% | 90% | 80% | 80% | 80% | –
O=C(CC1CCC(=O)N1Cc1cccc(F)c1F)NCCc1ccccc1 (racemic) [Example I-061] | 80% | 90% | 90% | 80% | 90% | –

SMILES | Pre-emergence activity against ALOMY [1] | Pre-emergence activity against AVEFA (Avena fatua (AVEFA) [2]; 1280 g/ha) | Post-emergence activity against AVEFA (Avena fatua (AVEFA) [4]) | Post-emergence activity against ECHCG [5] | Post-emergence activity against ALOMY [7] | also measured
CC(C)CC(NC(=O)CC1CCC(=O)N1Cc1cccc(F)c1F)C(=O)O (mixture of isomers) [Example I-045] | – | 90% | – | – | 80% | Pre-emergence activity against ECHCG [9]: 80%; Post-emergence activity against SETVI (Setaria viridis (SETVI) [6]): 80%; Post-emergence activity against LOLMU [8]: 80%
C=CCNC(=O)CC1CCC(=O)N1Cc1cccc(F)c1F (racemic) [Example I-059] | 80% | 80% | 80% | 80% | – | –
O=C(CC1CCC(=O)N1Cc1cccc(F)c1F)OCC[S+]([O-])c1ccc(Cl)cc1 (racemic) [Example I-029] | 80% | 100% | 90% | 90% | 80% | Pre-emergence activity against SETVI (Setaria viridis (SETVI) [11]): 80%; Pre-emergence activity against ECHCG [9]: 90%; Pre-emergence activity against LOLMU [10]: 80%; Post-emergence activity against LOLMU [8]: 80%
Cc1ccc(CN2C(=O)CCC2CC(=O)O)c(F)c1F (racemic) [Example I-035] | – | 100% | 90% | 90% | 80% | Pre-emergence activity against ECHCG [9]: 80%; Post-emergence activity against SETVI (Setaria viridis (SETVI) [6]): 100%; Post-emergence activity against LOLMU [8]: 80%
O=C(O)CC1CCC(=O)N1Cc1c(F)ccc(F)c1F (stereo not drawn) [Example I-191, [5-Oxo-1-(2,3,6-trifluorobenzyl)pyrrolidin-2-yl]acetic acid] | – | – | – | – | – | Pre-emergence activity against AVEFA (Avena fatua (AVEFA) [2]; 320 g/ha): 100%
CCS(=O)(=O)NC(=O)CC1CCC(=O)N1Cc1cccc(F)c1F (racemic) [Example I-072] | – | 80% | 80% | 80% | – | –
CC[C@H](C)[C@H](NC(=O)CC1CCC(=O)N1Cc1cccc(F)c1F)C(=O)O (single isomer, unassigned) [Example I-011] | 80% | 90% | 90% | 80% | – | Pre-emergence activity against LOLMU [10]: 80%; Post-emergence activity against LOLMU [8]: 90%
CCn1ccc(CNC(=O)CC2CCC(=O)N2Cc2cccc(F)c2F)n1 (racemic) [Example I-085] | – | – | 90% | – | – | –
COC(=O)[C@H](Cc1c[nH]cn1)NC(=O)CC1CCC(=O)N1Cc1cccc(F)c1F (single isomer, unassigned) [Example I-050] | – | – | – | 80% | – | –
CN(C)NC(=O)CC1CCC(=O)N1Cc1cccc(F)c1F (racemic) [Example I-058] | 90% | 100% | 80% | 80% | 80% | Pre-emergence activity against LOLMU [10]: 80%
CC(C)OC(=O)CC1CCC(=O)N1Cc1cccc(F)c1F (racemic) [Example I-025] | 90% | 100% | 80% | 90% | 80% | Pre-emergence activity against SETVI (Setaria viridis (SETVI) [11]): 80%; Pre-emergence activity against ECHCG [9]: 90%; Pre-emergence activity against LOLMU [10]: 90%; Pre-emergence activity against POLCO ([3]; 1280 g/ha): 80%; Post-emergence activity against LOLMU [8]: 80%
CS(=O)(=O)NC(=O)CC1CCC(=O)N1Cc1cccc(Cl)c1F (racemic) [Example I-070] | – | – | 80% | 80% | – | –
O=C(CC1CCC(=O)N1Cc1cccc(F)c1F)NC(Cc1ccccc1)C(=O)O (mixture of isomers) [Example I-044] | 80% | 90% | – | 90% | – | Pre-emergence activity against ECHCG [9]: 80%; Pre-emergence activity against POLCO ([3]; 1280 g/ha): 90%; Post-emergence activity against SETVI (Setaria viridis (SETVI) [6]): 80%
CSCCOC(=O)CC1CCC(=O)N1Cc1cccc(F)c1F (racemic) [Example I-010] | 80% | 100% | 90% | 100% | 80% | Post-emergence activity against SETVI (Setaria viridis (SETVI) [6]): 90%; Post-emergence activity against LOLMU [8]: 90%
O=C(CC1CCC(=O)N1Cc1cccc(F)c1F)NS(=O)(=O)C(F)(F)F (racemic) [Example I-052] | – | 90% | – | 80% | – | Post-emergence activity against LOLMU [8]: 80%
C#CCNC(=O)CC1CCC(=O)N1Cc1cccc(F)c1F (racemic) [Example I-092] | – | 80% | – | – | – | –

Source: patent US20240199542A1, “SUBSTITUTED PYRROLIDIN-2-ONES, SALTS THEREOF AND THEIR USE AS HERBICIDALLY ACTIVE SUBSTANCES” (Bayer Aktiengesellschaft, priority 2021, published 2024)
